Laboratory results reported in US7417156B2, “Orally active, antimalarial, anticancer, artemisinin-derived trioxane dimers” (Johns Hopkins University, priority 2002, dated 2008).

How the values were obtained:
[1] = tested on: chloroquine-sensitive P. falciparum (NF54); assay: Antimalarial activity in vitro, [3H]hypoxanthine incorporation; assay type: cell-based; details: Plasmodium falciparum, NF54, Table I; NF54 strain; read-out: IC50
60 cell line panel = assay type: cell-based
CCRF-CEM = assay: NCI 60 cell line panel screen (SRB); assay type: cell-based, human
HL-60(TB) = assay: NCI 60 cell line panel screen (SRB); assay type: cell-based, human
K-562 = assay: NCI 60 cell line panel screen (SRB); assay type: cell-based, human
RPMI-8226 = assay: NCI 60 cell line panel screen (SRB); assay type: cell-based, human
HOP-92 = assay: NCI 60 cell line panel screen (SRB); assay type: cell-based, human
NCI-H23 = assay: NCI 60 cell line panel screen (SRB); assay type: cell-based, human
NCI-H460 = assay: NCI 60 cell line panel screen (SRB); assay type: cell-based, human
HCT-116 = assay: NCI 60 cell line panel screen (SRB); assay type: cell-based, human
HCT-15 = assay: NCI 60 cell line panel screen (SRB); assay type: cell-based, human
KM12 = assay: NCI 60 cell line panel screen (SRB); assay type: cell-based, human
SF-268 = assay: NCI 60 cell line panel screen (SRB); assay type: cell-based, human
SNB-75 = assay: NCI 60 cell line panel screen (SRB); assay type: cell-based, human; details: SNB-75 (CNS Cancer)
U251 = assay: NCI 60 cell line panel screen (SRB); assay type: cell-based, human; details: U251 (CNS Cancer)
MALME-3M = assay: NCI 60 cell line panel screen (SRB); assay type: cell-based, human
M14 = assay: NCI 60 cell line panel screen (SRB); assay type: cell-based, human; details: M-14 (Melanoma); TGI: PG=0
SK-MEL-2 = assay: NCI 60 cell line panel screen (SRB); assay type: cell-based, human
SK-MEL-28 = assay: NCI 60 cell line panel screen (SRB); assay type: cell-based, human
OVCAR-3 = assay: NCI 60 cell line panel screen (SRB); assay type: cell-based, human
OVCAR-8 = assay: NCI 60 cell line panel screen (SRB); assay type: cell-based, human
CAKI-1 = assay: NCI 60 cell line panel screen (SRB); assay type: cell-based, human; details: CAKI-1 (Renal Cancer); LC50: PG=−50
RXF 393 = assay: NCI 60 cell line panel screen (SRB); assay type: cell-based, human
PC-3 = assay: NCI 60 cell line panel screen (SRB); assay type: cell-based, human
MCF7 = assay: NCI 60 cell line panel screen (SRB); assay type: cell-based, human
NCI/ADR-RES = assay: NCI 60 cell line panel screen (SRB); assay type: cell-based, human
[2] = mean value over the 60 cell line panel

For `C[C@@H]1CC[C@H]2[C@@H](C)C(CC(O)(COC(=O)CCC(=O)O)CC3OC4O[C@]5(C)CC[C@H]6[C@H](C)CC[C@@H]([C@H]3C)C46OO5)OC3O[C@]4(C)CCC1C32OO4` (stereo partly shown) [Compound 9, tertiary alcohol primary succinate ester], the IC50 [1] was 3 nM, the “Log10GI50 Delta” value (60 cell line panel) was 1.28 and the “Log10GI50 Range” value (60 cell line panel) was 3.94. For the same compound, the “Log10LC50 Delta” value (60 cell line panel; 60 cell line panel) was 0.29, the “Log10LC50 Range” value (60 cell line panel; 60 cell line panel) was 0.30 and the “Log10TGI50 Delta” value (60 cell line panel; 60 cell line panel) was 3.58. The “Log10TGI50 Range” value (60 cell line panel; 60 cell line panel) was 4.00, the “growth inhibition in words” value (60 cell line panel; colon cancer KM12, ovarian cancer OVCAR 3, breast cancer MDA-MB-435) was “selectively and strong inhibitory” and the “Log10GI50 MG MID” value (60 cell line panel; mean over panel) was −7.02. For the same compound, the “Log10LC50 MG MID” value (60 cell line panel; [2]) was −4.31 log10M, the “Log10TGI50 MG MID” value (60 cell line panel; [2]) was −4.72 log10M and the Log10LC50 (CCRF-CEM; CCRF-CEM (Leukemia), LC50: PG=−50) was >−4.30 log10M. The Log10TGI50 (CCRF-CEM; CCRF-CEM (Leukemia), TGI: PG=0) was >−4.30 log10M, the Log10GI50 (CCRF-CEM; Leukemia, CCRF-CEM) was <−8.30 and the Log10LC50 (HL-60(TB); HL-60(TB) (Leukemia), LC50: PG=−50) was >−4.30 log10M. The Log10GI50 (HL-60(TB); Leukemia, HL-60(TB)) was <−8.30, the Log10LC50 (K-562; K-562 (Leukemia), LC50: PG=−50) was >−4.30 log10M and the Log10TGI50 (K-562; K-562 (Leukemia), TGI: PG=0) was >−4.30 log10M. The Log10GI50 (K-562; Leukemia, K-562) was −8.30, the Log10GI50 (RPMI-8226; Leukemia, RPMI-8226) was <−8.30 and the Log10LC50 (RPMI-8226; RPMI-8226 (Leukemia), LC50: PG=−50) was >−4.30 log10M. The Log10TGI50 (RPMI-8226; RPMI-8226 (Leukemia), TGI: PG=0) was >−4.30 log10M, the Log10LC50 (HOP-92; HOP-92 (Non-Small Cell Lung Cancer), LC50: PG=−50) was >−4.30 log10M and the Log10TGI50 (HOP-92; HOP-92 (Non-Small Cell Lung Cancer), TGI: PG=0) was >−4.30 log10M. The Log10GI50 (HOP-92; Non-Small Cell Lung Cancer, HOP-92) was <−8.30, the Log10LC50 (NCI-H23; NCI-H23 (Non-Small Cell Lung Cancer), LC50: PG=−50) was >−4.30 log10M and the Log10TGI50 (NCI-H23; NCI-H23 (Non-Small Cell Lung Cancer), TGI: PG=0) was −4.65 log10M. For the same compound, the Log10GI50 (NCI-H23; Non-Small Cell Lung Cancer, NCI-H23) was <−8.30, the Log10LC50 (NCI-H460; NCI-H460 (Non-Small Cell Lung Cancer), LC50: PG=−50) was >−4.30 log10M and the Log10TGI50 (NCI-H460; NCI-H460 (Non-Small Cell Lung Cancer), TGI: PG=0) was >−4.30 log10M. The Log10GI50 (NCI-H460; Non-Small Cell Lung Cancer, NCI-H460) was <−8.30, the Log10GI50 (HCT-116; Colon Cancer, HCT-116) was <−8.30 and the Log10LC50 (HCT-116; HCT-116 (Colon Cancer), LC50: PG=−50) was >−4.30 log10M. For the same compound, the Log10TGI50 (HCT-116; HCT-116 (Colon Cancer), TGI: PG=0) was >−4.30 log10M, the Log10GI50 (HCT-15; Colon Cancer, HCT-15) was <−8.30 and the Log10LC50 (HCT-15; HCT-15 (Colon Cancer), LC50: PG=−50) was >−4.30 log10M. For the same compound, the Log10TGI50 (HCT-15; HCT-15 (Colon Cancer), TGI: PG=0) was −5.01 log10M, the Log10GI50 (KM12; Colon Cancer, KM12) was <−8.30 and the Log10LC50 (KM12; KM12 (Colon Cancer), LC50: PG=−50) was −4.36 log10M. For the same compound, the Log10TGI50 (KM12; KM12 (Colon Cancer), TGI: PG=0) was <−8.30 log10M, the Log10GI50 (SF-268; CNS Cancer, SF-268) was −5.48 and the Log10LC50 (SF-268; SF-268 (CNS Cancer), LC50: PG=−50) was >−4.30 log10M. For the same compound, the Log10TGI50 (SF-268; SF-268 (CNS Cancer), TGI: PG=0) was >−4.30 log10M, the Log10LC50 (SNB-75; LC50: PG=−50) was >−4.30 log10M and the Log10TGI50 (SNB-75; TGI: PG=0) was >−4.30 log10M. For the same compound, the Log10LC50 (U251; LC50: PG=−50) was >−4.30 log10M, the Log10TGI50 (U251; TGI: PG=0) was −4.75 log10M and the Log10LC50 (MALME-3M; MALME-3M (Melanoma), LC50: PG=−50) was >−4.30 log10M. The Log10TGI50 (MALME-3M; MALME-3M (Melanoma), TGI: PG=0) was −5.14 log10M, the Log10GI50 (MALME-3M; Melanoma, MALME-3M) was <−8.30 and the Log10TGI50 (M14) was >−4.30 log10M. For the same compound, the Log10GI50 (SK-MEL-2; Melanoma, SK-MEL-2) was −4.88, the Log10LC50 (SK-MEL-2; SK-MEL2 (Melanoma), LC50: PG=−50) was >−4.30 log10M and the Log10TGI50 (SK-MEL-2; SK-MEL-2 (Melanoma), TGI: PG=0) was >−4.30 log10M. For the same compound, the Log10GI50 (SK-MEL-28; Melanoma, SK-MEL-28) was <−8.30, the Log10LC50 (SK-MEL-28; SK-MEL-28 (Melanoma), LC50: PG=−50) was >−4.30 log10M and the Log10TGI50 (SK-MEL-28; SK-MEL-28 (Melanoma), TGI: PG=0) was >−4.30 log10M. For the same compound, the Log10LC50 (OVCAR-3; OVCAR-3 (Ovarian Cancer), LC50: PG=−50) was >−4.30 log10M, the Log10TGI50 (OVCAR-3; OVCAR-3 (Ovarian Cancer), TGI: PG=0) was <−8.30 log10M and the Log10GI50 (OVCAR-3; Ovarian Cancer, OVCAR-3) was <−8.30. For the same compound, the Log10LC50 (OVCAR-8; OVCAR-8 (Ovarian Cancer), LC50: PG=−50) was >−4.30 log10M, the Log10TGI50 (OVCAR-8; OVCAR-8 (Ovarian Cancer), TGI: PG=0) was >−4.30 log10M and the Log10GI50 (OVCAR-8; Ovarian Cancer, OVCAR-8) was −5.12. For the same compound, the Log10LC50 (CAKI-1) was >−4.30 log10M, the Log10LC50 (RXF 393; RXF 393 (Renal Cancer), LC50: PG=−50) was >−4.30 log10M and the Log10TGI50 (RXF 393; RXF 393 (Renal Cancer), TGI: PG=0) was −4.45 log10M. For the same compound, the Log10GI50 (RXF 393; Renal Cancer, RXF 393) was −7.67, the Log10LC50 (PC-3; PC-3 (Prostate Cancer), LC50: PG=−50) was >−4.30 log10M and the Log10TGI50 (PC-3; PC-3 (Prostate Cancer), TGI: PG=0) was >−4.30 log10M. The Log10GI50 (PC-3; Prostate Cancer, PC-3) was <−8.30, the Log10GI50 (MCF7; Breast Cancer, MCF7) was <−8.30 and the Log10LC50 (MCF7; MCF7 (Breast Cancer), LC50: PG=−50) was >−4.30 log10M. The Log10TGI50 (MCF7; MCF7 (Breast Cancer), TGI: PG=0) was >−4.30 log10M, the Log10GI50 (NCI/ADR-RES; Breast Cancer, NCI/ADR-RES) was −5.61 and the Log10LC50 (NCI/ADR-RES; NCI/ADR-RES (Breast Cancer), LC50: PG=−50) was >−4.30 log10M. The Log10TGI50 (NCI/ADR-RES; NCI/ADR-RES (Breast Cancer), TGI: PG=0) was >−4.30 log10M.
